The values that follow are results of earlier work, collected in paper PMC6768323, “Adverse Maternal, Fetal, and Postnatal Effects of Hexafluoropropylene Oxide Dimer Acid (GenX) from Oral Gestational Exposure in Sprague-Dawley Rats” (Environmental Health Perspectives, 2019).

The data set deals with rat. Conditions: cited from earlier work.

Structures are written as SMILES. Like-named read-outs stand apart in the source and are kept apart here. A value given as a limit tells only on which side of the number the result lay.

`O=S(=O)(O)C(F)(F)C(F)(F)C(F)(F)C(F)(F)C(F)(F)C(F)(F)C(F)(F)C(F)(F)F` [PFOS, perfluorooctane sulfonate]: where the note is “ref Lau et al. 2003”, the “dose with increased neonatal mortality” value was not below 3 mg/kg and the “dose with lower pup body weights” value is not below 2 mg/kg. Besides, the “dose with neonatal mortality” value (ref Luebker et al. 2005a, 2005b) was not below 1.6 mg/kg. Also, the “dose with lower pup body weights” value (ref Luebker et al. 2005b) was not below 0.4 mg/kg.
